Source: patent publication US5238926A, “Anti-fungal agents” (priority 1992, dated 1993)
Converted amounts (≈) assume the structure as drawn.

How the values were obtained:
[1] = tested on: Resistant Strains (Candida albicans C79, C6, C8, C31, C54, C70, C104, C138, C140; Candida stellatoidea C45); test: In vitro anti-fungal activity, microtiter minimum inhibitory concentration (MIC) test, resistant strains (MIC-R); assay type: cell-based; conditions: 48 h, pH 5.4, read-out: MIC-R
Procedure: (§1) The minimum inhibitory concentrations (MIC-R and MIC-S) were determined in accordance with the procedure set forth just below.
(§2) In vitro anti-fungal activity was determined in microtiter minimum inhibitory concentration (MIC) tests using Yeast Nitrogen […] (YNB without amino acids, Difco., Detroit, Mich.) at pH 5.4. Yeasts were grown overnight in Sabouraud Dextrose Broth. at 28° C. with shaking, and concentrations adjusted in sterile saline using a spectrophoptometer at 540 mμ. Compounds were dissolved in various vehicles and diluted in media to twice the final concentrations. The Cetus Pro/Pette system was used to serially dilute 50 μl in round bottom 96 well plates (Falcon, Lincoln Park, NJ.). The turbidometrically adjusted yeast suspensions were diluted 1:3,000 in YNB. These dilutions when added to the wells, produced a final inoculum of 3×10^3 /ml. Plates were incubated at 37° C. for 48 hours. MICs were defined as the lowest concentrations of compound that prevented visible growth. MICs were taken against the following organisms and expressed in the table above as the geometric mean. MIC-R and MIC-S mean respectively, MICs taken against resistant and sensitive strains.
Candida stellatoidea C45

[2] = In vitro anti-fungal activity, microtiter minimum inhibitory concentration (MIC) test, sensitive strains (MIC-S); assay type: cell-based; conditions: 48 h, pH 5.4, read-out: MIC-S
Procedure: as §1, §2
Candida parapsilosis C67
Candida tropicalis C112
Torulopsis glabrata C95
Candida pseudotropicalis C967
Candida gullermondii C137
Sacchararomyces mutant C147

In the case of `CCCCCCCCCCC(N)C(=O)N[C@H](C(N)=O)[C@H]1O[C@@H](n2ccc(=O)[nH]c2=O)[C@H](O)[C@@H]1O` (stereo partly shown), the MIC [1] is reported as > 256 µg/mL and the MIC [2] is reported as > 256 µg/mL.

For `CCCCCCCCCCCCNC(=O)[C@@H](NC(=O)C1(N)CC2CCC1C2)[C@H]1O[C@@H](n2ccc(=O)[nH]c2=O)[C@H](O)[C@@H]1O` (stereo partly shown), the MIC [1] was 104 µg/mL (≈ 176 µM) and the MIC [2] was 315 µg/mL (≈ 532 µM).

For `C=C[C@@H](C)[C@H](N)C(=O)N[C@H](C(=O)NCCCCCCCCCCCC)[C@H]1O[C@@H](n2ccc(=O)[nH]c2=O)[C@H](O)[C@@H]1O` [6'-dodecylamido-5-N-[2-S-amino-3-R-methyl-4-pentenoyl]-UPOC], the MIC [1] was 18 µg/mL (≈ 31.8 µM) and the MIC [2] was 26 µg/mL (≈ 46 µM).

Compound `CCCCCCCCCCCCNC(=O)[C@@H](NC(=O)[C@@H](N)CC[S+](C)[O-])[C@H]1O[C@@H](n2ccc(=O)[nH]c2=O)[C@H](O)[C@@H]1O` (stereo partly shown) has an MIC [1] of 181 µg/mL (≈ 301 µM) and an MIC [2] of 181 µg/mL (≈ 301 µM).

Work on `CCCCCCCCCCCCNC(=O)[C@@H](NC(=O)[C@@H](N)CCOC)[C@H]1O[C@@H](n2ccc(=O)[nH]c2=O)[C@H](O)[C@@H]1O` yielded an MIC [1] of 52 µg/mL (≈ 91.3 µM) and an MIC [2] of 111 µg/mL (≈ 195 µM).

With `CCCCCCCCCCCCNC(=O)[C@@H](NC(=O)[C@@H](N)CSCc1ccccc1)[C@H]1O[C@@H](n2ccc(=O)[nH]c2=O)[C@H](O)[C@@H]1O` the MIC [1] was 111 µg/mL (≈ 171 µM) and the MIC [2] was > 147 µg/mL.

Work on `CCCCCCCCCCCCNC(=O)[C@@H](NC(=O)[C@@H](N)C(C)CSC)[C@H]1O[C@@H](n2ccc(=O)[nH]c2=O)[C@H](O)[C@@H]1O` (stereo partly shown) yielded an MIC [1] of 23 µg/mL (≈ 38.3 µM) and an MIC [2] of 34 µg/mL (≈ 56.7 µM).

`CCCCCCCCCCCCNC(=O)[C@@H](NC(=O)[C@@H](N)CCCC)[C@H]1O[C@@H](n2ccc(=O)[nH]c2=O)[C@H](O)[C@@H]1O` showed an MIC [1] of 13 µg/mL (≈ 22.9 µM) and an MIC [2] of 19.7 µg/mL (≈ 34.7 µM).
